These results are taken from patent US20200399262A1, “COMPOUNDS FOR INHIBITING PROTEIN DEGRADATION AND METHODS OF USE THEREOF IN THE TREATMENT OF CANCER” (PI Therapeutics Ltd, priority 2018, published 2020).

Converted amounts (≈) assume the structure as drawn. Bounds are passed on as bounds.

Series [1] deals with proteasome. Nature of the series: Proteasome activity (Proteasome-GLO) in intact MM1.S cells. As to conditions: 3 hr at 37° C. It counts as cell-based. Here is the method:
Proteasome activity was measured in intact MM1.S cells as cleavage of peptide substrates, specific for Trypsin like (TL), Chemotrypsin like (CTL) and Caspase like (PL) activities of the proteasome following treatment with Compound B1, Compound AA or Bortezomib (BTZ) at ˜EC50 concentrations for 3 hr at 37° C. BTZ was used as positive control.
Proteasome activity. The assay was performed only when cell viability is ≥90%. Cells were seeded in 96-well white clear bottom plates and treated with diluted compounds or vehicle control in triplicates for 3 hours at various concentrations. Catalytic activity was measured using three luminogenic proteasome substrates: Suc-LLVY-aminoluciferin (Succinyl-leucine-leucine-valine-tyrosine-aminoluciferin), Z-LRR-aminoluciferin (Z-leucine-arginine-arginine-aminoluciferin) and Z-nLPnLD-aminoluciferin (Z-norleucine-proline-norleucine-aspartate-aminoluciferin) for the chymotrypsin-like, trypsin-like and caspase-like activities, respectively (Proteasome-GLO, Promega). The emitted light was proportional to the proteasomal activity. Catalytic activity was calculated as the percent activity from control vehicle-treated cells.
MM1.S cells, were treated with Compound B1, Compound AA or Bortezomib (BTZ) at various concentrations for 3 hr at 37° C. […] Proteasome activity was measured by cleavage of proteasome-specific peptide substrates for TL, CTL and PL activities.

The test system of series [2] is MM1.S. The series can be described thus: Cell viability, ATPlite 1-step, MM cell lines. As to conditions: Homo sapiens; MM1.S MM cell line; 48 hours; read-out: Compound EC50. It counts as cell-based. On the procedure: (§1) Cell Viability. The assay was performed only when cell viability was ≥90%. Cells were seeded in 96-well white clear bottom plates at concentration of 100,000 cells/mL and treated with serially diluted compounds or vehicle (DMSO) control in triplicates for 48 hours (h). Cell viability was determined using the ATPlite 1-step assay system (PerkinElmer). The method was based on the production of light caused by the reaction of ATP, which was a marker for cell viability. […] were added to the plates which were read in a plate reader for luminescence. The emitted light is proportional to the ATP concentration. Viability was calculated as the percent of viable cells from control vehicle-treated cells. EC50 was calculated using Prism software.
(§2) Potency of compounds were assessed by viability assay.

Series [3] deals with U266. The series can be described thus: Cell viability, ATPlite 1-step, MM cell lines. It counts as cell-based. As to conditions: Homo sapiens, U-266; U266 MM cell line; 48 hours; read-out: Compound EC50. Here is the method: as §1, §2
Series [4] has as its system MM cell lines. Nature of the series: Cell viability, ATPlite 1-step, MM cell lines. The class given is cell-based. As to conditions: cell line printed N/A; read-out: Compound EC50. On the procedure: as §1, §2
Series [5] in a line: Kinetic solubility by differential UV absorbance. The class given is physicochemical. As to conditions: aqueous buffer, kinetic from dmso stock; DMSO stock diluted in PBS, OD before and after centrifugation. Here is the method: FIG. 3A-3B depict the kinetic solubility of Compound B1 (FIG. 3A) and Compound E1 (FIG. 3B) as measured by differential UV absorbance of the compounds, as performed before and after centrifugation. Soluble concentrations were determined when OD was equivalent between centrifuged and non-centrifuged fractions. Compounds were dissolved from co-solvent stock, and further serially 2-fold diluted in PBS. OD was measured at the maximal absorbance for each compound before (BC) and after (AC) centrifugation, using Spark 20M, Tecan.
Kinetic solubility quantification. Compound B1/Compound E1 DMSO stock was diluted with PBS by serial 2-fold dilutions. Then, the samples were centrifuged for 5 minutes at 17,000 g to precipitate any insoluble compound. Each sample was tested at a single wave length (Compound B1 at […]; Compound E1 at […]) in duplicate before and after centrifugation to assess solubility of the compound. Soluble concentrations were determined when optical density (OD) was equivalent between centrifuged and non-centrifuged fractions.
Kinetic solubility of all Compounds was determined by differential UV absorbance before and after centrifugation. […] Solubility concentration was determined when OD was equivalent between centrifuged and non-centrifuged fractions (FIG. 3A-3B).

Series [6] relates to poly-ubiquitinated proteins. The series can be described thus: Western blot of poly-ubiquitinated proteins in MM1.S cells. The class given is cell-based. As to conditions: SDS-PAGE immunoblot. On the procedure:
MM1.S cells were treated with Compound B1 (FIG. 1A), Compound AA (FIG. 1B) and Compound E1 (FIG. 1C) for indicated periods of time. Following treatment, the cells were harvested, and the lysates resolved on SDS-PAGE. Transferred membranes were blotted with antibodies as indicated. Actin was used as loading control.
Protein analysis by Western blot. At the end of treatment period, the cells were lysed with M-PER mammalian protein extraction reagent (ThermoFisher Scientific) supplemented with protease inhibitors. Equal protein amounts were resolved on pre-cast SDS-PAGE (ThermoFisher Scientific) and transferred to a PVDF membrane. The membrane was immunoblotted with antibodies as indicated. The following antibodies were used: Ub MAb (SC-8017, Santa-Cruz), ATF4, ATF6, phospho JNK, JNK (Cell signaling); eIF2alpha, phospho eIF2alpha (Novus).

Turning to `CC(C)C[C@H](NC(=O)[C@H](Cc1ccccc1)NC(=O)c1cnccn1)B(O)O` [Bortezomib, reference compound], the “inhibition of the enzymatic functions of the proteasome (TL, CTL and PL activities)” value in series [1] is reported as “specifically inhibits CTL activity”. As to `CN(CCCN=[N+]=[N-])CC(=O)NCC(=O)N1C/C(=C\c2ccc(C#N)cc2)C(=O)/C(=C/c2ccc(C#N)cc2)C1` [Compound B2], the EC50 in series [2] is less than 300 nM. As for `C#CCN(C)CC(=O)NCC(=O)N1C/C(=C\c2ccc(C#N)cc2)C(=O)/C(=C/c2ccc(C#N)cc2)C1` [Compound B3], the EC50 in series [2] and in series [3] was less than 300 nM each time. As to `CC(=O)NCC(=O)N1C/C(=C\c2ccc(F)c(C#N)c2)C(=O)/C(=C/c2ccc(F)c(C#N)c2)C1` [Compound B5, N-{2-[(3E,5E)-3,5-bis[(3-cyano-4-fluorophenyl)methylidene]-4-oxopiperidin-1-yl]-2-oxoethyl}acetamide], in series [3], the EC50 is less than 300 nM. For `CC(=O)NCC(=O)N1C/C(=C\c2ccc(C#N)cc2)C(=O)/C(=C/c2ccc(C#N)cc2)C1` [Compound B6, N-{2-[(3E,5E)-3,5-bis[(4-cyanophenyl)methylidene]-4-oxopiperidin-1-yl]-2-oxoethyl}acetamide], the EC50 in series [2] is less than 300 nM.

Take `CC(=O)N[C@H](CO)C(=O)N1C/C(=C\c2ccc(C#N)cc2)C(=O)/C(=C/c2ccc(C#N)cc2)C1` [Compound B7, N-[(2R)-1-[(3E,5E)-3,5-bis[(4-cyanophenyl)methylidene]-4-oxopiperidin-1-yl]-3-hydroxy-1-oxopropan-2-yl]acetamide]: the EC50 in series [3] is 300 to 1000 nM. With `N#Cc1ccc(/C=C2\CN(C(=O)CNC(=O)CO)C/C(=C\c3ccc(C#N)cc3)C2=O)cc1` [Compound B8], the EC50 in series [2] is less than 300 nM. Regarding `O=C1/C(=C/c2ccc(Cl)c(Cl)c2)CN(C(=O)CNc2ccccc2)C/C1=C\c1ccc(Cl)c(Cl)c1` [Compound B9], the EC50 in series [3] is not below 1000 nM. With `CNCC(=O)N1C/C(=C\c2ccc(Cl)c(Cl)c2)C(=O)/C(=C/c2ccc(Cl)c(Cl)c2)C1` [Compound B10], the EC50 in series [3] is not below 1000 nM. `COCCNCC(=O)N1C/C(=C\c2ccc(Cl)c(Cl)c2)C(=O)/C(=C/c2ccc(Cl)c(Cl)c2)C1` [Compound B11]: in series [3], the EC50 was not below 1000 nM.

For the compound `O=C1/C(=C/c2ccc(Cl)c(Cl)c2)CN(C(=O)CCc2ccccc2)C/C1=C\c1ccc(Cl)c(Cl)c1` [Compound B12], the EC50 in series [3] fell in the range of 300 to 1000 nM. `CC(=O)NCCC(=O)N1C/C(=C\c2ccc(Cl)c(Cl)c2)C(=O)/C(=C/c2ccc(Cl)c(Cl)c2)C1` [Compound B13]: the EC50 in series [2] is less than 300 nM. Take `O=C1/C(=C/c2ccc(Cl)c(Cl)c2)CN(C(=O)C(O)Cc2ccccc2)C/C1=C\c1ccc(Cl)c(Cl)c1` (centres unmarked) [Compound B14]: the EC50 in series [3] is 300 to 1000 nM. The same measure, in the same setting: the value for `O=C1/C(=C/c2ccc(Cl)c(Cl)c2)CN(C(=O)C(Cc2ccccc2)C(=O)O)C/C1=C\c1ccc(Cl)c(Cl)c1` (centres unmarked) [Compound B15] was not below 1000 nM.

Consider `O=C1/C(=C/c2ccc(Cl)c(Cl)c2)CN(C(=O)C2(Nc3ccccc3)CC2)C/C1=C\c1ccc(Cl)c(Cl)c1` [Compound B16], for which, in series [2], the EC50 was less than 300 nM. Turning to `COC(Cc1ccccc1)C(=O)N1C/C(=C\c2ccc(Cl)c(Cl)c2)C(=O)/C(=C/c2ccc(Cl)c(Cl)c2)C1` (centres unmarked) [Compound B17], the EC50 in series [3] was less than 300 nM. On the same count and under the same terms, to `N[C@@H](Cc1ccccn1)C(=O)N1C/C(=C\c2ccc(Cl)c(Cl)c2)C(=O)/C(=C/c2ccc(Cl)c(Cl)c2)C1` [Compound B18] belongs less than 300 nM; to `N[C@@H](Cc1cccc(O)c1)C(=O)N1C/C(=C\c2ccc(Cl)c(Cl)c2)C(=O)/C(=C/c2ccc(Cl)c(Cl)c2)C1` [Compound B19], less than 300 nM; to `O=C1/C(=C/c2ccc(Cl)c(Cl)c2)CN(C(=O)C2COCCN2)C/C1=C\c1ccc(Cl)c(Cl)c1` (centres unmarked) [Compound B20], less than 300 nM. As to `N[C@@H](Cc1ccccc1)C(=O)N1C/C(=C\c2ccccc2)C(=O)/C(=C/c2ccc(Cl)c(Cl)c2)C1` [Compound B21], the concentration giving a half-maximal response (EC50) in series [3] lay in the range of 300 to 1000 nM.

`N[C@@H](Cc1ccccc1)C(=O)N1C/C(=C\c2ccc(Cl)c(Cl)c2)C(=O)/C(=C/c2cc(Cl)ccc2Cl)C1` [Compound B22]: the EC50 in series [3] was less than 300 nM. Regarding `CC(=O)NC1(C(=O)N2C/C(=C\c3ccc(Cl)c(Cl)c3)C(=O)/C(=C/c3ccc(Cl)c(Cl)c3)C2)CC1` [Compound B23], in series [2], the EC50 was less than 300 nM. For `CNC(=O)CCC(=O)N1C/C(=C\c2ccc(Cl)c(Cl)c2)C(=O)/C(=C/c2ccc(Cl)c(Cl)c2)C1` [Compound B24], in series [3], the EC50 fell in the range of 300 to 1000 nM. For `CC(=O)NCC(=O)N1C/C(=C\c2ccc(Cl)c(Cl)c2)C(=O)/C(=C/c2ccc(Cl)c(Cl)c2)C1` [Compound B25], the EC50 in series [3] was less than 300 nM. Turning to `O=C1/C(=C/c2ccc(Cl)c(Cl)c2)CN(C(=O)C2(Nc3ccccc3)CC2)CC1Cc1ccc(Cl)c(Cl)c1` (centres unmarked) [Compound B26], the EC50 in series [2] is not below 1000 nM. For `CC(=O)NCCC(=O)N1C/C(=C\c2ccc(Cl)c(Cl)c2)C(=O)C(Cc2ccc(Cl)c(Cl)c2)C1` (centres unmarked) [Compound B27], the EC50 in series [3] is not below 1000 nM. For `CC(C)C(Nc1ccccc1)C(=O)N1C/C(=C\c2ccc(Cl)c(Cl)c2)C(=O)/C(=C/c2ccc(Cl)c(Cl)c2)C1` (centres unmarked) [Compound B28], the EC50 in series [3] is less than 300 nM.

For the compound `CC(=O)N(C)CCC(=O)N1C/C(=C\c2ccc(Cl)c(Cl)c2)C(=O)/C(=C/c2ccc(Cl)c(Cl)c2)C1` [Compound B29], the EC50 in series [4] is not below 1000 nM. Turning to `CNC(=O)CC(=O)N1C/C(=C\c2ccc(Cl)c(Cl)c2)C(=O)/C(=C/c2ccc(Cl)c(Cl)c2)C1` [Compound B30], the EC50 in series [3] was less than 300 nM. With `CN(C)C(Cc1ccccc1)C(=O)N1C/C(=C\c2ccc(Cl)c(Cl)c2)C(=O)/C(=C/c2ccc(Cl)c(Cl)c2)C1` (centres unmarked) [Compound B32], in series [3], the EC50 was less than 300 nM. As for `CN(C)CCS(=O)(=O)N1C/C(=C\c2ccc(C#N)cc2)C(=O)/C(=C/c2ccc(C#N)cc2)C1` [Compound BA], the EC50 in series [2] was less than 300 nM. As for `CN(C)CCCS(=O)(=O)N1C/C(=C\c2ccc(F)c(C(F)(F)F)c2)C(=O)/C(=C/c2ccc(F)c(C(F)(F)F)c2)C1` [Compound CA], the EC50 in series [2] was less than 300 nM. Turning to `COCCS(=O)(=O)N1C/C(=C\c2ccc(Cl)c(Cl)c2)C(=O)/C(=C/c2ccc(Cl)c(Cl)c2)C1` [Compound D1], in series [3], the EC50 was less than 300 nM. As for `Cc1noc(C)c1/C=C1\CN(S(=O)(=O)CCCN(C)C)C/C(=C\c2c(C)noc2C)C1=O` [Compound E1], in series [2], the concentration giving a half-maximal response (EC50) was less than 300 nM. For the same compound, the kinetic solubility in series [5] stood at 2500 µM (≈ 1160 µg/mL). For the same compound, in series [6], the “accumulation of poly-ubiquitinated proteins” value was “observable accumulation of poly-ubiquitinated proteins”. Turning to `CN(C)CCCS(=O)(=O)N1C/C(=C\c2ccc(C#N)cc2)C(=O)C(Cc2ccc(C#N)cc2)C1` (centres unmarked) [Compound F1], the EC50 in series [2] is less than 300 nM.
